We go through one compound from paper PMC8429736, “Pharmacological characterization of mutant huntingtin aggregate-directed PET imaging tracer candidates” (Scientific Reports, 2021).

SMILES strings stand for the structures. Like-named read-outs stand apart in the source and are kept apart here.

In assay [1] the target is T1, Exon1-Q46 aggregates (Homo sapiens, UniProt P42858, INS38QQQQQQQQQQQQQQQQQQQQQQQQQ).
T1 construct: MBP-HTT(1-89)Q46-His(6x); MBP (N, cleaved yes); made in house; host or cells: E. coli BL21 (DE3)
Briefly: RBA saturation binding, recombinant Exon1-Q46 aggregates. As to the method:
(§1) For N-terminal tag cleavage, proteins at 30 µM in 2 mL reaction tubes were incubated with 150 µg/mL thrombin (Sigma, T4648) in 50 mM Tris (pH 8.0), 150 mM NaCl, 2 mM CaCl2 for 16 h at 37 °C.
For radioligand binding assays (RBA) (see below) and radiometric filter trap assays (RAFTA) (see below), aggregates were separated by centrifugation (5 min 16,000×g) and resuspended with assay buffer (50 mM Tris pH 8.0, 150 mM NaCl) (see Supplementary Fig. S2B). Protein concentrations always refer to the starting peptide concentrations (i.e., peptide concentration applied in the aggregation reaction before thrombin cleavage) since post-cleaved aggregates are heterogeneous and the number of peptides per aggregate is unknown.
(§2) Samples were then transferred onto a 96-well GF/B filter plate (Perkin Elmer, #6005177) using a Filtermate Harvester, aspirated by vacuum and wells washed twice with 200 µL PBS. After drying the filter plates for 1 h at 55 °C the back of the plate was sealed with aluminum cover and 30 µL of scintillation fluid (Perkin Elmer, #6013641) per well was added. The tops of the plates were sealed, and the plates were incubated for 15 min in the dark and counted in a TopCount or MicroBeta2 reader (both Perkin Elmer).
For saturation binding experiments, aggregate lysate preparation and final concentration in the assay, assay buffer, incubation times and plate processing were identical to the competition format. Radioligand was titrated up to 100 nM. Raw cpm were converted into nM using a calibration line of total added radioligand without washing and filtering (spiked onto the filter plate and dried) (e.g., X) and normalized to the concentration of protein (e.g., Y) to finally obtain […] (e.g., X/Y). Specific binding (SB) was calculated as full binding minus full competition (in the presence of excess unlabeled ligand) and a hyperbolic mono-phasic fit was applied using GraphPad Prism to determine Kd and Bmax.

Assay [2] deals with Q46 aggregates. Briefly: RBA saturation binding, Q46 aggregates. Conditions: tritiated compound; mean ± SD. As to the method:
as §1
For radioligand binding assays (RBA) (see below) and radiometric filter trap assays (RAFTA) (see below), aggregates were separated by centrifugation (5 min 16,000×g) and resuspended with assay buffer (50 mM Tris pH 8.0, 150 mM NaCl) (see Supplementary Fig. S2B). […]
Samples were then transferred onto a 96-well GF/B filter plate (Perkin Elmer, #6005177) using a Filtermate Harvester, aspirated by vacuum and wells washed twice with 200 µL PBS. […] The tops of the plates were sealed, and the plates were incubated for 15 min in the dark and counted in a TopCount or MicroBeta2 reader (both Perkin Elmer).
For saturation binding experiments, aggregate lysate preparation and final concentration in the assay, assay buffer, incubation times and plate processing were identical to the competition format. […] Specific binding (SB) was calculated as full binding minus full competition (in the presence of excess unlabeled ligand) and a hyperbolic mono-phasic fit was applied using GraphPad Prism to determine Kd and Bmax.

The target in assay [3] is Q46 aggregates. The assay is described as follows: RBA competition binding against tritiated 3, Q46 aggregates. Conditions: 0.3 nM tritiated 3 as radioligand; 1 µM aggregates; mean ± SD. The procedure: For the competition assay format, Q46 or Exon1-Q46 aggregates at 1 µM (sample volume 150 µL) were pre-incubated in a 96-well round bottom plate (Corning, #3365) for 20 min with test compounds at room temperature (assay buffer 50 mM Tris–HCl pH 8.0, 150 mM NaCl). […] Radioligand 3 at 0.3 nM was added and incubated for 1 h at 37 °C.
as §2
Raw sample data collected as counts per minute (cpm) were normalized towards assay controls: 0% inhibition = radioligand + protein + vehicle, 100% inhibition = radioligand + protein + 1 µM unlabeled ligand. A 4-parameter […] fit was applied to generate IC50 values.

Assay [4] concerns the target mHTT aggregates in HOM zQ175 HD mouse brain sections. Briefly: In vitro autoradiography (ARG) saturation binding, HOM zQ175 brain sections. Conditions: HOM zQ175 12 months, cortex. The procedure: (§3) Twenty µm-thick sections were prepared from brains of disease mouse models and WT mice or human post-mortem brain samples by using a cryostat, mounted on superfrost slides and stored at -80 °C for a maximum of 2 weeks. On the day of the experiment, slides were adapted to room temperature for 30 min and then equilibrated by immersion into assay buffer (50 mM Tris–HCl pH 7.4; 120 mM NaCl; 5 mM KCl; 2 mM CaCl2; 1 mM MgCl2) for 20 min at room temperature.
(§4) Radioligand solutions were prepared in assay buffer. Optimal radioligand concentrations were determined in advance based on signal-to-background ratio obtained in mouse or human brain tissue. The solutions were mixed in a Coplin jar (Sigma, S5516-6EA) by gently shaking at 175 rpm for 10 min at room temperature. Sections were incubated by immersion into assay buffer containing either only radioligand (total binding or TB) or radioligand plus 10 µM of unlabeled compound (non-specific binding or NSB) for 60 min at room temperature. Afterwards slides were washed three times for 10 min with ice-cold washing buffer (50 mM Tris–HCl (pH 7.4)) at 4 °C and dipped for three seconds in ice-cold distilled water to remove buffer salts. […]

Assay [5] addresses beta amyloid plaques in human AD brain sections (Homo sapiens, UniProt P05067). The assay is described as follows: ARG, human post-mortem AD frontal cortex sections. The class given is binding. Conditions: 1 nM radioligand.
Assay [6] concerns the target phospho-Tau tangles (AT8 antibody) (Homo sapiens, UniProt P10636). Briefly: HR ARG co-registration with AT8 antibody, human AD brain sections. It counts as binding. Conditions: 10 nM CHDI-180, 10 nM CHDI-626, 0.1 nM PiB, 1 nM T808.
Assay [7] concerns aggregated ataxin 1. The assay is described as follows: ARG, Sca1 mouse models. The class given is binding. The procedure: as §3, §4

T1 sequence (P42858 with tags, fused parts or gaps with the stated changes): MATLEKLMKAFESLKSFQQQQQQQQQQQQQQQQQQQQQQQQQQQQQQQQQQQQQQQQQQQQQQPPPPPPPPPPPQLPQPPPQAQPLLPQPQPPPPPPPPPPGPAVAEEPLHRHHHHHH
Sequence of beta amyloid plaques in human AD brain sections (P05067 672-713 limits assumed): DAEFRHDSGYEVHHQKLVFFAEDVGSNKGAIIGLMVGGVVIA
Sequence of phospho-Tau tangles (AT8 antibody) (P10636 623-695 limits assumed): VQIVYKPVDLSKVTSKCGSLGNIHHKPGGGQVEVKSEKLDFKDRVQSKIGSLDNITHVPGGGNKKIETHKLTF

Broadly, the Kd is the equilibrium constant for the complex coming apart. Broadly, the IC50 is the midpoint of a concentration-inhibition curve. A higher IC50 goes with a need for much substance. Regarding `COc1ccc(COc2ccc3oc(-c4ccc(=O)n(C)n4)nc3c2)nc1` [CHDI-180], the Bmax in assay [1] (representative single experiment (Fig. 2A)) was found to be 0.3 nmol/μmol. Further, the equilibrium dissociation constant (Kd) worked out at 3.2 nM in assay [1] (representative single experiment (Fig. 2A), read-out: Kd); 2.6 ± 0.9 nM in assay [1] (tritiated compound, mean ± SD, read-out: Kd Exon1-Q46); 7.7 ± 3.3 nM in assay [2]; 1.1 nM in assay [4]. Besides, the IC50 in assay [3] was found to be 1.2 ± 0.5 nM. In addition, the “ARG Bmax” value in assay [4] (per mg tissue) is 163.0 fmol/mg. The “binding in AD post-mortem brain tissues” value in assay [5] worked out at 5.6 ± 0.7 fmol/mg; in assay [5] (gray matter), 5.6 ± 0.7 fmol/mg tissue. For the same compound, the “co-registration with AT8-positive phospho-Tau immunoreactivity” value in assay [6] was “did not co-register”. The “binding to aggregated ataxin 1” value in assay [7] (1 nM radioligand, PcP2-82Q and SCA154Q/2Q mice) is recorded as “bound to aggregated ataxin 1”. For the same compound, in assay [7] (brain sections of 2 Sca mouse models), the “ARG signals compared to the R6/2 HD model” value is listed as “much lower”.
